Test results as given in article PMC7083851, “Extended pharmacodynamic responses observed upon PROTAC-mediated degradation of RIPK2” (Communications Biology, 2020).
Several values for one entry are separate records, joined by “and”; a condition that tells them apart may be missing. Equal values may be shown once.

Columns and labels:
[1] = target: T1, RIPK2 (Homo sapiens, UniProt O43353); test: RIPK2 degradation in THP-1 cells, capillary-based immunoassay, 18 h; format: cell-based; design: endogenous in cells; host or cells: THP-1 (ATCC TIB-202); settings: for RIPK2 level relative to DMSO control, mean / RIPK2 level relative to DMSO control, replicate: THP-1, 18 h; for pDC50 (log half-maximal degradation concentration) of RIPK2: THP-1 cells, 18 h, n = 3
Method: The compounds were incubated with THP-1 cells for 18 h after which RIPK2 levels were determined using a capillary-based immunoassay (n = 3). All three PROTACs potently degraded RIPK2 in a concentration dependent manner (Fig. 1). […]. This discrepancy between the in vitro RIPK2 degradation and binding potency provides possible evidence for a catalytic mechanism of action of this compound.
(§1) Before treatment with compound or vehicle, THP1 cells, human and rat PBMCs were counted using Vi-Cell cell counter (Invitrogen) and adjusted to a final cell density of […] using complete growth medium. Cells or whole blood were treated with vehicle (0.1% DMSO) or fixed concentrations of compound up to 1 μM in half log unit increments and incubated for the time period indicated in the figure.
(§2) Simple Western immunoassay: Cell lysates were mixed with 5× concentrated master mix (Protein Simple) and denatured at 95 °C on a heat block for 5 min together with the provided ladder (Protein Simple). Antibodies were diluted in the provided buffer as following: anti-RIPK2 (1:10 or 1:50), anti-cIAP1(1:10), anti-cIAP2 (1:10), anti-XIAP (1:10), mouse anti-β-actin (Abcam - 1:1000), rabbit anti-β-actin (Abcam - 1:50) and anti-vinculin (1:100). All reagents (blocking buffer, primary and secondary antibodies, streptavadin, luminol/peroxide, separation matrix, stacking matrix and water) were added to the Protein Simple plate containing the ladder and lysates and the plate was placed in a Protein Simple Western instrument and the Simple Western default size assay protocol was used. All samples were analyzed using the associated Compass software 3.1.7. The area under the peak values obtained for RIPK2, cIAP1, cIAP2 or XIAP were normalized relative to the control protein values.
(§3) In vitro experimental data were analyzed using a 4-parameter logistic equation in GraphPad Prism 5.0.4. to generate an estimate of the half-maximal concentration and maximal degradation, DC50 and Dmax value respectively, for concentration-degradation relationships. Cytokine levels were analyzed in a similar manner to yield IC50 and Imax values. […] Where analysis to a sigmoidal relationship was not possible, the data points are shown as mean ± s.e.m.

[2] = target: T1, RIPK2; test: RIPK2 fluorescence polarisation binding assay
[3] = tested on: L18-MDP-induced TNFα release; test: L18-MDP-induced cytokine release (TNFα, IL1β, IL-6, IL-8, IL-10) in human PBMCs; format: cell-based; settings: human PBMCs
Method: (§4) PBMCs were isolated from leukodepletion filter from platelet aphaeresis supplied by National Health System Blood and Transplant—NHSBT Apheresed at NHBST.
as §1
(§5) Where the assessment of cytokines was performed, L18-MDP was added to the cell culture media (1 μg/ml) or to the rat blood samples (100 ng/ml) and samples were incubated for up to 4 h. […] Samples were them spun down at 1000 g and the cell culture supernatant, plasma or serum were collected for cytokines assessment, while cell pellets were used for RIPK2 and/or cIAP1, cIAP2, and XIAP levels analysis via immunoblotting.
(§6) Cytokine measurement assay: Cytokine levels were measured in rat plasma or rat PBMCs cell culture supernatants using rat V-Plex TNFα, in human plasma or human PBMCs cell culture supernatants with either TNFα tissue culture or 7-plex kit. Rat serum and tissues samples from the in vivo L18-MDP acute inflammation model were analyzed using the rat TNFα, Il-6 and IL-8 U-Plex kits. All kits provided by Meso Scale Discovery (MSD). Levels of cytokines spontaneously released from human colon biopsies cell culture supernatants were measured using Human IL-1 beta/IL-1F2 DuoSet ELISA (Bio-techne), Human IL-6 ELISA (Immunotools) and Human TNF-alpha DuoSet ELISA (Bio-techne). All samples were processed accordingly to the manufacturer’s instructions. The MSD plates were analyzed using the MSD sector imager 6000 plate reader and cytokines concentration (pg/ml) was obtained by using the MSD DISCOVERY WORKBENCH software version 4.0.12.1
as §3

[4] = target: T1, RIPK2; test: RIPK2 degradation in human PBMCs (immunoassay); format: cell-based; design: endogenous in cells; host or cells: primary human PBMCs from leukodepletion filters (NHSBT)
Method: as §4, §1, §5
as §2, with “All samples were analyzed using the associated Compass software 3.1.7.” left out
as §3

[5] = tested on: spontaneous IL-1β, IL-6, and TNFα release; test: Spontaneous cytokine release (IL-1β, IL-6, TNFα) from Crohn's disease patient intestinal biopsies; format: cell-based, human; settings: prednisolone 1uM; individual biopsies; fig 4e
Method: (§7) Colonic biopsies or tissues were obtained during endoscopy or via surgical resection from Crohn’s Disease (CD) or Ulcerative Colitis (UC) patients (St Bartholomew’s Hospital, London). All patients gave informed written consent. For surgical specimens, the mucosa was dissected away from the submucosa and cut into pieces of ~10–20 mg. […] The supernatants were collected for cytokine measurement as detailed in cytokines assay section while tissues were used to determine RIPK2 levels.
as §6

[6] = tested on: spontaneous IL-1β, IL-6, and TNFα release; test: Spontaneous cytokine release (IL-1β, IL-6, TNFα) from ulcerative colitis patient intestinal biopsies; format: cell-based, human; settings: prednisolone 1uM; individual biopsies; fig 4f
Method: as §7, §6

T1 sequence (O43353 whole entry): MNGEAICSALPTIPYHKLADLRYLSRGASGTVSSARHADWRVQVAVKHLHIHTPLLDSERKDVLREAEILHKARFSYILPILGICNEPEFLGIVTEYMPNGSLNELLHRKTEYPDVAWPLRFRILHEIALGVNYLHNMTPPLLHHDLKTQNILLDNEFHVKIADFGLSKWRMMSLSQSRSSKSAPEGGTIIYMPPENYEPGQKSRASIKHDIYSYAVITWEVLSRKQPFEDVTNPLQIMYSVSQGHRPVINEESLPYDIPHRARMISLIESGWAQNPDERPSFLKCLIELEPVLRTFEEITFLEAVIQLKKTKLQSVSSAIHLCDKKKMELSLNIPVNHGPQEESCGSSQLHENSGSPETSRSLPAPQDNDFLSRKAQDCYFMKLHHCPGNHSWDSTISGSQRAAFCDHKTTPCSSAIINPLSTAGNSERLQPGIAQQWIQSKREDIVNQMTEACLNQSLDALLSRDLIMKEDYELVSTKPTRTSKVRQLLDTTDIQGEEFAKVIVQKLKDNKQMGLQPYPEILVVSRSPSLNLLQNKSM

SMILES | RIPK2 level relative to DMSO control, mean ([1]; concentration 5.64503e-11 (uM)) [%] | RIPK2 level relative to DMSO control, replicate ([1]; concentration 5.64503e-11 (uM)) | RIPK2 level relative to DMSO control, mean ([1]; concentration 1.69351e-10 (uM)) [%] | RIPK2 level relative to DMSO control, replicate ([1]; concentration 1.69351e-10 (uM)) | RIPK2 level relative to DMSO control, mean ([1]; concentration 5.08053e-10 (uM)) [%] | RIPK2 level relative to DMSO control, replicate ([1]; concentration 5.08053e-10 (uM)) | RIPK2 level relative to DMSO control, mean ([1]; concentration 1.52416e-9 (uM)) [%] | RIPK2 level relative to DMSO control, replicate ([1]; concentration 1.52416e-9 (uM)) | RIPK2 level relative to DMSO control, mean ([1]; concentration 4.57247e-9 (uM)) [%] | RIPK2 level relative to DMSO control, replicate ([1]; concentration 4.57247e-9 (uM)) | RIPK2 level relative to DMSO control, mean ([1]; concentration 1.37174e-8 (uM)) [%] | RIPK2 level relative to DMSO control, replicate ([1]; concentration 1.37174e-8 (uM)) | RIPK2 level relative to DMSO control, mean ([1]; concentration 4.11523e-8 (uM)) [%] | RIPK2 level relative to DMSO control, replicate ([1]; concentration 4.11523e-8 (uM)) | RIPK2 level relative to DMSO control, mean ([1]; concentration 1.23457e-7 (uM)) [%] | RIPK2 level relative to DMSO control, replicate ([1]; concentration 1.23457e-7 (uM)) | RIPK2 level relative to DMSO control, mean ([1]; concentration 3.7037e-7 (uM)) [%] | RIPK2 level relative to DMSO control, replicate ([1]; concentration 3.7037e-7 (uM)) | RIPK2 level relative to DMSO control, mean ([1]; concentration 1.11111e-6 (uM)) [%] | RIPK2 level relative to DMSO control, replicate ([1]; concentration 1.11111e-6 (uM)) | further results
Cc1ncsc1-c1ccc(CNC(=O)[C@@H]2C[C@@H](O)CN2C(=O)[C@@H](NC(=O)COCCOCCOCCOCCOc2cc3nccc(Nc4ccc5scnc5c4)c3cc2S(=O)(=O)C(C)(C)C)C(C)(C)C)cc1 [PROTAC 1] | 137.19 | 137.14% and 131.67% and 142.75% | 152.51 | 155.57% and 149.03% and 152.92% | 122.01 | 106.27% and 143.87% and 115.89% | 89.18 | 63.87% and 96.25% and 107.40% | 27.32 | 23.09% and 35.58% and 23.29% | 9.76 | 12.67% and 5.77% and 10.83% | 6.61 | 11.20% and 7.66% and 0.96% | 5.05 | 9.24% and 2.76% and 3.15% | 6.31 | 7.12% and 6.30% and 5.51% | 33.78 | 1.60% and 12.61% and 87.13% | RIPK2 level relative to DMSO control, mean ([1]; concentration 3.33333e-6 (uM)): 14.14%; RIPK2 level relative to DMSO control, replicate ([1]; concentration 3.33333e-6 (uM)): 1.88% and 3.30% and 37.22%; RIPK2 level relative to DMSO control, mean ([1]; concentration 1e-5 (uM)): 11.28%; RIPK2 level relative to DMSO control, replicate ([1]; concentration 1e-5 (uM)): 13.04% and 4.22% and 16.59%; pDC50 (log half-maximal degradation concentration) of RIPK2 [1]: 8.7 ± 0.1
CC(C)(C)S(=O)(=O)c1cc2c(Nc3ccc4scnc4c3)ccnc2cc1OCCOCCOCCOCCOCC(=O)Nc1cccc2c1CN([C@H]1CCC(=O)NC1=O)C2=O [PROTAC 3] | 146.59 | 194.68% and 98.50% | 122.55 | 71.16% and 101.63% and 194.85% | 97.79 | 93.88% and 82.74% and 116.75% | 112.46 | 101.29% and 70.25% and 165.85% | 60.56 | 92.51% and 28.00% and 61.18% | 42.80 | 81.76% and 12.71% and 33.93% | 29.73 | 51.94% and 1.28% and 35.96% | 21.93 | 35.50% and 5.30% and 24.99% | 20.89 | 34.52% and 2.06% and 26.09% | 14.85 | 24.75% and 3.56% and 16.23% | RIPK2 level relative to DMSO control, mean ([1]; concentration 3.33333e-6 (uM)): 15.39%; RIPK2 level relative to DMSO control, replicate ([1]; concentration 3.33333e-6 (uM)): 20.92% and 6.74% and 18.51%; RIPK2 level relative to DMSO control, mean ([1]; concentration 1e-5 (uM)): 22.12%; RIPK2 level relative to DMSO control, replicate ([1]; concentration 1e-5 (uM)): 28.44% and 5.50% and 32.40%; pDC50 (log half-maximal degradation concentration) of RIPK2 [1]: 8.6 ± 0.4
CN[C@H](C)C(=O)N[C@@H](C(=O)N1CCC[C@@H]1c1nc(C(=O)c2ccc(F)cc2)cs1)C1CCN(C(=O)c2cnc(N3CCN(CCOc4cc5ncnc(Nc6n[nH]c(C)c6C)c5cc4S(=O)(=O)C(C)(C)C)CC3)nc2)CC1 [PROTAC 5] |  |  |  |  |  |  |  |  |  |  |  |  |  |  |  |  |  |  |  |  | RIPK2 FP pIC50 ± SEM (n) [2]: 6.7 ± 0.05 (12); hPBMC MDP pIC50 ± SEM, 6 h (n = 3) ([3]; L18-MDP-induced TNFα release, 6 h): 6.5 ± 0.5; fold reduced potency in L18-MDP-induced TNFα release versus the active PROTAC ([3]; control PROTAC vs its enantiomer): more than 10 fold; RIPK2 degradation in human PBMCs, in words [4]: does not degrade RIPK2; hPBMC pDC50 ± SEM, 24 h (n = 3) ([4]; RIPK2 degradation, 24 h): Non-degrader
C[C@]12C=CC(=O)C=C1CC[C@@H]1[C@@H]2[C@@H](O)C[C@@]2(C)[C@H]1CC[C@]2(O)C(=O)CO [prednisolone, reference compound] |  |  |  |  |  |  |  |  |  |  |  |  |  |  |  |  |  |  |  |  | IL-1b (Ctrl=DMSO = 100) [5]: 18 and 20 and 82 and 15 and 48 and 13 and 5 (2×) and 35 and 37 and 12 and 6 and 49 and 17; IL-6 (Ctrl=DMSO = 100) [5]: 26 (2×) and 27 and 10 and 1 and 8 and 46 and 63 and 31 and 7 and 42 and 40 and 90 and 50 and 9; TNFa (Ctrl=DMSO = 100) [5]: 29 and 15 and 42 and 28 and 19 and 0 and 13 and 33 and 46 (2×) and 27 and 26 and 38 and 23 and 66; IL-1b (Ctrl=DMSO = 100) [6]: 65 and 41 and 10 and 46 and 7 (2×) and 49 and 30 and 14 and 33 and 36 and 5 and 17 and 39 and 19 (2×) and 13 and 34 and 28; IL-6 (Ctrl=DMSO = 100) [6]: 58 and 14 and 16 and 25 and 18 and 9 and 12 and 5 (2×) and 74 and 26 and 34 and 28 and 19 and 3 and 21 and 17 and 48 and 24; TNFa (Ctrl=DMSO = 100) [6]: 36 and 19 and 40 and 48 and 18 (2×) and 56 and 8 and 33 and 55 and 69 and 27 and 38 (2×) and 20 and 25 and 35 and 14 and 39
